# Laboratory results: patent US11690396B2, “Electronic cigarette compositions, devices, and related methods” (ZANOPRIMA LIFESCIENCES LIMITED, priority 2018, dated 2023)
# Assays:
# [1] = Solubility of carbon dioxide in nicotine solutions with low propylene glycol (Example 5); type: physicochemical; conditions: for Added CO2: ~50.0 g solution, average of two experiments
# Source text: Using the same methodology as that of Example 3, solutions of nicotine in glycerol, nicotine, water, and propylene glycol (if present) were made as detailed in the Table 4. In Table 4, propylene glycol is referred to as “PG”. The propylene glycol, when present, originated from the addition of a tobacco flavouring composition. The tobacco flavouring composition, referred to in Table 4 as “TF”, (made up of tobacco flavouring dissolved/dispersed in propylene glycol) included propylene glycol at 65% by weight. […] For each experiment, the solution used was within 0.2 g of 50.0 g. As with Example 3, the solutions were weighed before and after the addition of the CO2, and the change in weight before and after addition of the CO2 enabled the amount of CO2 incorporated into the solution to be derived. The amount of carbon dioxide reported as being incorporated into solution is the average result achieved across two experiments.
# [2] = Solubility of carbon dioxide in nicotine solutions (Example 3, weight change); type: physicochemical
# Protocol: Into weighed plastic 500 ml bottles containing approximately 50 g of a solution of nicotine in glycerol/propylene glycol according to Table 3 were added 4-5 g solid carbon dioxide (dry-ice), sufficient to raise the pressure to 4-5 bar. The mixtures were held under pressure for 3 days before the pressure was released, and the mixtures were then stood at ambient temperature for 48 hours and then the new weight of the solution measured. The change in weight before and after addition of the CO2 enable the amount of CO2 incorporated into the solution to be derived, as well as the molar ratio of CO2 to nicotine.
# [3] = glycerol 78.3, nicotine 5, water 8.7, TF 8, PG 5.2 wt %
# [4] = glycerol 81, nicotine 2, water 9, TF 8, PG 5.2 wt %
# [5] = glycerol 82.65, nicotine 5, water 4.35, TF 8, PG 5.2 wt %
# [6] = glycerol 85.5, nicotine 2, water 4.5, TF 8, PG 5.2 wt %
# [7] = glycerol 85.5, nicotine 5, water 9.5, TF 0, PG 0 wt %
# [8] = glycerol 88.2, nicotine 2, water 9.8, TF 0, PG 0 wt %
# [9] = glycerol 90.25, nicotine 5, water 4.75, TF 0, PG 0 wt %
# [10] = glycerol 93.1, nicotine 2, water 4.9, TF 0, PG 0 wt %
smiles,measurement,setting,value
"O=C=O [CO2, carbon dioxide]",Solubility of CO2,[1]; [3],13 g/kg
same,Solubility of CO2,"[1]; glycerol 78.3, nicotine 5, water 8.7, TF 8, PG 5.2 wt %, estd density 1.21 kg/l",16 mg/mL
same,Added CO2,[1]; [3],0.66 g
same,Solubility of CO2,[1]; [4],12 g/kg
same,Solubility of CO2,"[1]; glycerol 81, nicotine 2, water 9, TF 8, PG 5.2 wt %, estd density 1.21 kg/l",14 mg/mL
same,Added CO2,[1]; [4],0.58 g
same,Solubility of CO2,[1]; [5],16 g/kg
same,Solubility of CO2,"[1]; glycerol 82.65, nicotine 5, water 4.35, TF 8, PG 5.2 wt %, estd density 1.22 kg/l",19 mg/mL
same,Added CO2,[1]; [5],0.79 g
same,Solubility of CO2,[1]; [6],11 g/kg
same,Solubility of CO2,"[1]; glycerol 85.5, nicotine 2, water 4.5, TF 8, PG 5.2 wt %, estd density 1.23 kg/l",13 mg/mL
same,Added CO2,[1]; [6],0.54 g
same,Solubility of CO2,[1]; [7],16 g/kg
same,Solubility of CO2,"[1]; glycerol 85.5, nicotine 5, water 9.5, TF 0, PG 0 wt %, estd density 1.22 kg/l",20 mg/mL
same,Added CO2,[1]; [7],0.82 g
same,Solubility of CO2,[1]; [8],11 g/kg
same,Solubility of CO2,"[1]; glycerol 88.2, nicotine 2, water 9.8, TF 0, PG 0 wt %, estd density 1.23 kg/l",14 mg/mL
same,Added CO2,[1]; [8],0.56 g
same,Solubility of CO2,[1]; [9],18 g/kg
same,Solubility of CO2,"[1]; glycerol 90.25, nicotine 5, water 4.75, TF 0, PG 0 wt %, estd density 1.24 kg/l",23 mg/mL
same,Added CO2,[1]; [9],0.91 g
same,Solubility of CO2,[1]; [10],10 g/kg
same,Solubility of CO2,"[1]; glycerol 93.1, nicotine 2, water 4.9, TF 0, PG 0 wt %, estd density 1.25 kg/l",13 mg/mL
same,Added CO2,[1]; [10],0.51 g
same,Solubility CO2,"[2]; 70:30 glycerol:propylene glycol, nicotine 0 g/kg, 4-5 bar 3 days, then 48 h ambient",3.8 g/kg
same,Added CO2,"[2]; 70:30 glycerol:propylene glycol, nicotine 0 g/kg, 50.00 g solution, 4-5 bar 3 days, then 48 h ambient",0.19 g
same,Solubility CO2,"[2]; 70:30 glycerol:propylene glycol, nicotine 0 g/kg, estimated density 1.19 kg/L",4.5 mg/mL
same,Molar ratio CO2/nicotine,"[2]; 70:30 glycerol:propylene glycol, nicotine 4 g/kg (0.4%)",8.77 mol/mol
same,Added CO2,"[2]; 70:30 glycerol:propylene glycol, nicotine 4 g/kg (0.4%), 49.96 g solution, average of two results",0.48 g
same,Solubility CO2,"[2]; 70:30 glycerol:propylene glycol, nicotine 4 g/kg (0.4%), average of two results",9.5 g/kg
same,Solubility CO2,"[2]; 70:30 glycerol:propylene glycol, nicotine 4 g/kg (0.4%), estimated density 1.19 kg/L",11.3 mg/mL
same,weight increase (CO2 incorporated),[2]; comparative: 20 g pure nicotine charged similarly with carbon dioxide,did not result in any weight increase at all
